Laboratory results from ChEMBL document CHEMBL3351656, “Discovery of novel 2-[2-(3-hydroxy-pyridin-2-yl)-thiazol-4-yl]-acetamide derivatives as HIF prolyl 4-hydroxylase inhibitors; SAR, synthesis and modeling evaluation” (Bioorg Med Chem Lett, 2014).
In brackets after ≈: the same amount, converted by molar mass.

Assay: Solubility of the compound at pH 7.4
Assay type: physicochemical
Details: buffer

solubility	Compound
> 195 µg/mL	N#Cc1cnc(-c2nc(CC(=O)N[C@H](C(=O)O)c3ccccc3)cs2)c(O)c1
78.4 µg/mL (≈ 207 µM)	Cc1sc(-c2ncc(C#N)cc2O)nc1CC(=O)NCCc1ccccn1
6.4 µg/mL (≈ 16.3 µM)	Cc1sc(-c2ncc(C#N)c(C)c2O)nc1CC(=O)NCCc1ccccn1
13.9 µg/mL (≈ 43.9 µM)	CCNC(=O)Cc1nc(-c2ncc(C#N)c(C)c2O)sc1C
0.74 µg/mL (≈ 1.62 µM)	Cc1c(C#N)cnc(-c2nc(CC(=O)NCCc3ccccn3)c(-c3ccccc3)s2)c1O
13.6 µg/mL (≈ 37.3 µM)	N#Cc1cnc(-c2nc(CC(=O)NCCc3ccccc3)cs2)c(O)c1
85.9 µg/mL (≈ 222 µM)	CCN(CC)CCNC(=O)Cc1nc(-c2ncc(C#N)c(C)c2O)sc1C
28.9 µg/mL (≈ 83.4 µM)	CC(C)(NC(=O)Cc1csc(-c2ncc(C#N)cc2O)n1)C(=O)O
108 µg/mL (≈ 342 µM)	N#Cc1cnc(-c2nc(CC(=O)N3CCCC3)cs2)c(O)c1
> 188 µg/mL	N#Cc1cnc(-c2nc(CC(=O)N[C@H](CO)c3ccccc3)cs2)c(O)c1
> 195 µg/mL	N#Cc1cnc(-c2nc(CC(=O)N[C@@H](C(=O)O)c3ccccc3)cs2)c(O)c1
> 181 µg/mL	N#Cc1cnc(-c2nc(CC(=O)NCCc3ccccn3)cs2)c(O)c1
117 µg/mL (≈ 265 µM)	N#Cc1cnc(-c2nc(CC(=O)NCCc3ccccn3)c(-c3ccccc3)s2)c(O)c1
106 µg/mL (≈ 332 µM)	N#Cc1cnc(-c2nc(CC(=O)NCC(=O)O)cs2)c(O)c1
> 188 µg/mL	N#Cc1cnc(-c2nc(CC(=O)N[C@@H](CO)c3ccccc3)cs2)c(O)c1
> 185 µg/mL	CCN(CC)CCNC(=O)Cc1csc(-c2ncc(C#N)c(C)c2O)n1
11.2 µg/mL (≈ 29.5 µM)	Cc1c(C#N)cnc(-c2nc(CC(=O)NCCc3ccccn3)cs2)c1O
24.1 µg/mL (≈ 68.8 µM)	N#Cc1cnc(-c2nc(CC(=O)NCc3ccccc3)cs2)c(O)c1
